Tested on: BMDC primary cells
Test: Luc mRNA LNP transfection on BMDC primary cells (Embodiment 21, Table 9)
Format: cell-based, C57BL/6 mice
Conditions: 16 h, ONE-Glo Luciferase
Method: Preparation method: the same as that in Embodiment 17.
Animal preparation: 6-week-old female C57BL/6 mice with the body weight about 20 g were selected. A feeding environment was an SPF stage feeding room. Animal tests were strictly performed according to the guide of the national health institute and the animal ethics requirements.
Cell acquisition: C57BL/6 mice were killed through cervical dislocation, and were soaked for 5 min in 75% ethyl alcohol. Dissection was performed to obtain thigh and calf tibiae of the mice. Attached muscles were removed to expose sclerotin. Then, bone marrow in tibiae was blown out by using a 1 mL injector sucked with PBS. After the bone marrow was blown away, impurities were filtered away by a 50 μm filter screen. A red blood cell lysis buffer (3-4 mL) was added into an obtained filtrate. Then, after placement for 5 min, 800 g centrifugation was performed for 5 min to remove a supernatant. The obtained cells were placed into a 1640 culture medium (containing 10% fetal calf serum, 20 ng/mL GMCSF and 10 ng/mL IL4) to be resuspended, and were inoculated into a 6-well plate at an inoculation density of 100000 cells/ml culture medium. The materials were placed into a 37° C. cell incubator containing 5% CO2. Half liquid change was performed once every 2 days. Suspended cells and loose wall attached cells were collected on the seventh day, and were inoculated to a 96-well all-white ELISA plate at the inoculation density of 20000 cells per well, and the volume of a culture medium was 100 μL.
Cell transfection: lipid nanoparticles coated with luciferase mRNA were added into a 96-well white ELISA plate laid with primary cells. The adding volume of the mRNA lipid nanoparticles in each well was controlled to be 10 μL. Then, the materials were put into a 37° C. incubator containing 5% CO2 for 16 h.
Transfection efficiency detection: 20 μL of a substrate ONE-Glo™ Luciferase was added into each well of a 96-well all-white ELISA plate, and after 1 min, detection was performed by a multifunctional or multimode microplate reader.

SMILES	Luciferase luminescence intensity
CCCCCCCCCCCC(COC(=O)C(CCCC)CCCCCCCCCC)OC(=O)CCCN(C)C (stereo not drawn) [E8C104A9]	3.7E+04
CCCCCCCCCCCC(COC(=O)C(CCCCC)CCCCCCCCC)OC(=O)CCCN(C)C (stereo not drawn) [E8C109A9]	4.8E+04
CCCCCCCCCCCC(COC(=O)C(CCCCC)CCCCCCCCCCC)OC(=O)CCCN(C)C (stereo not drawn) [E8C111A9]	4.6E+04
CCCCCCCCCCCC(COC(=O)C(CCCCCCC)CCCCCCC)OC(=O)CCCN(C)C (stereo not drawn) [E8C114A9]	6.8E+04
CCCCCCCCCCCC(COC(=O)C(CCCCCCC)CCCCCCC)OC(=O)CCCCN(C)C (stereo not drawn) [E8C114A11]	1.3E+05
CCCCCCCCCCCC(COC(=O)C(CCCCCCCC)CCCCCCCC)OC(=O)CCCN(C)C (stereo not drawn) [E8C115A9]	6.0E+04
CCCCCCCCCCCC(COC(=O)C(CCCCCCCC)CCCCCCCC)OC(=O)CCCCN(C)C (stereo not drawn) [E8C115A11]	1.9E+05
CCCCCCCCCCCC(COC(=O)C(CCCCCCCCC)CCCCCCCCC)OC(=O)CCCCN(C)C (stereo not drawn) [E8C116A11]	5.0E+04
CCCCCCCCCCCC(COC(=O)CC(CCCCC)CCCCCCCCC)OC(=O)CCCCN(C)C (stereo not drawn) [E8C123A11]	7.1E+04
CCCCCCCCCCCC(COC(=O)CC(CCCCCCC)CCCCCCC)OC(=O)CCCN(C)C (stereo not drawn) [E8C128A9]	3.9E+04
CCCCCCCCCCCC(COC(=O)CC(CCCCCCC)CCCCCCC)OC(=O)CCCCN(C)C (stereo not drawn) [E8C128A11]	3.5E+04
CCCCCCCCCCCCC(COC(=O)C(CCCC)CCCCCCCCCC)OC(=O)CCCN(C)C (stereo not drawn) [E9C104A9]	3.6E+04
CCCCCCCCCCCCC(COC(=O)C(CCCC)CCCCCCCCCC)OC(=O)CCCCN(C)C (stereo not drawn) [E9C104A11]	4.4E+04
CCCCCCCCCCCCC(COC(=O)C(CCCCC)CCCCCCCCC)OC(=O)CCCN(C)C (stereo not drawn) [E9C109A9]	3.6E+04
CCCCCCCCCCCCC(COC(=O)C(CCCCC)CCCCCCCCC)OC(=O)CCCCN(C)C (stereo not drawn) [E9C109A11]	3.6E+04
CCCCCCCCCCCCC(COC(=O)C(CCCCC)CCCCCCCCCCC)OC(=O)CCCCN(C)C (stereo not drawn) [E9C111A11]	3.9E+04
CCCCCCCCCCCCC(COC(=O)C(CCCCCCC)CCCCCCC)OC(=O)CCCN(C)C (stereo not drawn) [E9C114A9]	9.1E+04
CCCCCCCCCCCCC(COC(=O)C(CCCCCCC)CCCCCCC)OC(=O)CCCCN(C)C (stereo not drawn) [E9C114A11]	8.5E+04
CCCCCCCCCCCCC(COC(=O)C(CCCCCCCC)CCCCCCCC)OC(=O)CCCN(C)C (stereo not drawn) [E9C115A9]	1.4E+05
CCCCCCCCCCCCC(COC(=O)C(CCCCCCCC)CCCCCCCC)OC(=O)CCCCN(C)C (stereo not drawn) [E9C115A11]	1.9E+05
CCCCCCCCCCCCC(COC(=O)C(CCCCCCCCC)CCCCCCCCC)OC(=O)CCCCN(C)C (stereo not drawn) [E9C116A11]	7.6E+04

SMILES	Luciferase luminescence intensity
CCCCCCCCCCCCC(COC(=O)CC(CCCCC)CCCCCCCCC)OC(=O)CCCCN(C)C (stereo not drawn) [E9C123A11]	5.1E+04
CCCCCCCCCCCCC(COC(=O)CC(CCCCCCC)CCCCCCC)OC(=O)CCCN(C)C (stereo not drawn) [E9C128A9]	3.7E+04
CCCCCCCCCCCCC(COC(=O)CC(CCCCCCC)CCCCCCC)OC(=O)CCCCN(C)C (stereo not drawn) [E9C128A11]	3.5E+04
CCCCCCCCCCCCCC(COC(=O)C(CCCC)CCCCCCCCCCCC)OC(=O)CCCN(C)C (stereo not drawn) [E10C106A9]	4.2E+04
CCCCCCCCCCCCCC(COC(=O)C(CCCCC)CCCCCCCCC)OC(=O)CCCCN(C)C (stereo not drawn) [E10C109A11]	3.5E+04
CCCCCCCCCCCCCC(COC(=O)C(CCCCC)CCCCCCCCCCC)OC(=O)CCCN(C)C (stereo not drawn) [E10C111A9]	3.7E+04
CCCCCCCCCCCCCC(COC(=O)C(CCCCCCC)CCCCCCC)OC(=O)CCCN(C)C (stereo not drawn) [E10C114A9]	4.3E+04
CCCCCCCCCCCCCC(COC(=O)C(CCCCCCC)CCCCCCC)OC(=O)CCCCN(C)C (stereo not drawn) [E10C114A11]	7.6E+04
CCCCCCCCCCCCCC(COC(=O)C(CCCCCCCC)CCCCCCCC)OC(=O)CCCN(C)C (stereo not drawn) [E10C115A9]	4.4E+04
CCCCCCCCCCCCCC(COC(=O)C(CCCCCCCC)CCCCCCCC)OC(=O)CCCCN(C)C (stereo not drawn) [E10C115A11]	8.2E+04
CCCCCCCCCCCCCC(COC(=O)CC(CCCCCCC)CCCCCCC)OC(=O)CCCN(C)C (stereo not drawn) [E10C128A9]	3.8E+04
CCCCCCCCCCCCCC(COC(=O)CC(CCCCCCC)CCCCCCC)OC(=O)CCCCN(C)C (stereo not drawn) [E10C128A11]	4.7E+04
CCCCCCCCCCCCCCC(COC(=O)C(CCCCC)CCCCCCCCC)OC(=O)CCCN(C)C (stereo not drawn) [E11C109A9]	4.3E+04
CCCCCCCCCCCCCCC(COC(=O)C(CCCCC)CCCCCCCCC)OC(=O)CCCCN(C)C (stereo not drawn) [E11C109A11]	4.8E+04
CCCCCCCCCCCCCCC(COC(=O)C(CCCCCCC)CCCCCCC)OC(=O)CCCN(C)C (stereo not drawn) [E11C114A9]	4.5E+04
CCCCCCCCCCCCCCC(COC(=O)C(CCCCCCC)CCCCCCC)OC(=O)CCCCN(C)C (stereo not drawn) [E11C114A11]	6.5E+04
CCCCCCCCCCCCCCC(COC(=O)C(CCCCCCCC)CCCCCCCC)OC(=O)CCCN(C)C (stereo not drawn) [E11C115A9]	4.9E+04
CCCCCCCCCCCCCCC(COC(=O)C(CCCCCCCC)CCCCCCCC)OC(=O)CCCCN(C)C (stereo not drawn) [E11C115A11]	6.3E+04
CCCCCCCCCCCCCCC(COC(=O)CC(CCCCCC)CCCCCCCC)OC(=O)CCCN(C)C (stereo not drawn) [E11C126A9]	3.6E+04
CCCCCCCCCCCCCCC(COC(=O)CC(CCCCCCC)CCCCCCC)OC(=O)CCCN(C)C (stereo not drawn) [E11C128A9]	3.9E+04
CCCCCCCCCCCCCCC(COC(=O)CC(CCCCCCC)CCCCCCC)OC(=O)CCCCN(C)C (stereo not drawn) [E11C128A11]	4.2E+04
